# Experiments:
# [1] = test system: adalimumab producing cell line 1; assay: Glucose consumption of the culture, cell line 1; format: cell-based
# Description: (§1) For the bioreactor (3 L Applikon) experiments (Examples 1, 2 and 3), 3 L, bioreactors (1.5 L working volume) were initiated at 35° C. (cell line 1) and 36° C. (cell line 2), 30% DO, 200 rpm, pH of 7.1. In some of the conditions, pH was ramped down to 6.8 in three days and kept at pH 6.8 thereafter. The inclusion of pH ramp for a particular condition is indicated by the final pH in the experimental design. If the final pH is 7.1, then it indicates no pH ramp was performed, whereas if the final pH is 6.8, a pH ramp was performed on day 3 from pH 7.1 to pH 6.8. In some of the conditions, a temperature shift was performed. When temperature shift was performed, the temperature was lowered to 33° C. Again, the conditions where such a temperature shift was performed can be identified from the final temperature in the experimental design. Cultures were run in extended batch mode with the addition of a desired amount of 40% glucose stock solution was fed based on glucose measurements.
# To assess if this reduction in MGO modification in the test conditions also corresponded to lower glucose consumption, the specific glucose consumption rate was calculated across the two phases of culture: average over day 0-day 5 and average over day 5-10 (period post temperature shift) (FIG. 4b). The specific glucose consumption rate in the conditions with 2DDG supplementation was lower in both phases. […] In the period post the temperature shift, up to 50% reduction in specific glucose consumption rate relative to that in the control was observed. Thus, a clear correlation has been observed between reduced glucose consumption and the extent of MGO modification of the peptides.
# To further assess the applicability of this strategy, the cumulative glucose consumption levels were also evaluated for these conditions in this study (FIG. 6b). This was calculated by using daily glucose concentration measurements via the offline analyzer and by accounting for glucose feeds when added. […]
# [2] = test system: adalimumab producing cell line 2; assay: Glucose consumption of the culture, cell line 2; format: cell-based; conditions: Example 4
# Description: as §1
# The objective of this experiment was to further evaluate the control of MGO synthesis/MGO protein modification through reduced glucose consumption in a different cell line, Cell line 2. […] As described in Example 3, extracellular MGO quantification was performed for day 7, 8 and 9 for the samples below and percentage of acidic species were quantified using WCX-10 analysis post protein A of cell culture harvests. […]
structure (smiles),measurement,setting,value
"O=CC[C@@H](O)[C@H](O)[C@H](O)CO [Test 2DDG, 2-Deoxy-D-Glucose]",specific glucose consumption rate,"[1]; Example 2, 2DDG 0.25 g/l, day 0-day 5 and day 5-10, versus control",lower
same,glucose consumption,"[1]; Example 3, 2DDG supplementation 0.25 g/l",significant reduction
same,glucose consumption rate,"[2]; 0.05 g/l 2DDG, compared to control",not significantly lower
same,glucose consumption,[2]; 0.15 g/l 2DDG,reduction

# Source: US20160115225A1, “Methods of Reducing Methylglyoxal (MGO) Modification of Recombinant Proteins in Cell Culture” (AbbVie Inc., priority 2014, published 2016)
